“Also recorded” adds a separate entry of the source.
Columns and labels:
[1] = system: TAT induction in hepatocytes (GR); experiment: antagonism of TAT induction by DXM or B in hepatocytes; format: cell-based, rat
Description: Hatched bars represent incubations performed in the presence of vehicle instead of agonist.
(§1) Bioassay : Liver glycogen deposition was measured on adrenalectoniized male Sprague-Dawley rats (180-220 g) as follows: steroids were dissolved in ethanol/propylene glycol/0.9% NaCl solution (3:3:34) and 100 μg steroid/l00 g body weight were injected i.m. the previous night. On the morning of the experiment this dose was reinjected intraperitoneally. Three hours later the rats were killed by cervical dislocation and livers were immediately removed. Glycogen purification and quantification were carried out according to Krisman's method (17). Na^+ -retaining properties were measured as described (5). Tyrosine aminotransferase (TAT) was induced in rat hepatocytes isolated by the procedure of Fry et al (18). TAT activity was determined according to Granner and Tomkins (19).
The basal TAT activity in hepatocytes, denominated control in the figure, was measured by adding vehicle (final concentration: 0.2% ethanol) to the culture. […] 2.5 μM 21OH-6OP inhibits 80% of TAT induction when concubated with B or DXM.

liver glycogen = liver glycogen deposition in vivo, adrenalectomized rats; parameters: species or system rat; settings: FIG. 3-A; 100 μg steroid/100 g body weight
Description: FIG. 3: Biological Properties of 21OH-6OP: A) Glycogen storage in vivo: 100 μg steroid/100 g body weight of male rats were injected as indicated in Example 1. Liver glycogen was purified and quantified with Krisman's reagent (17). Controls were injected with vehicle. Results are expressed as means±SEM (n=6). (*): different from controls P<0.02. B) TAT induction in vitro: rat hepatocytes were incubated for 5 h in HAM-F12 medium in the presence of 100 nM steroid and TAT activity was measured. Results are expressed as percentage of enzyme activity (means±SEM, n=4) over controls incubated in the presence of vehicle. (*) different from controls P<0.01. C) Sodium-retaining activity: adrenalectomized rats were treated with the indicated dose of steroids. Results are expressed as the ratio of sodium-excretion rates of steroid-injected animals to the excretion rates of rats injected with vehicle.
as §1

type II sites (GR) = target: T1, type II sites (GR) (Rattus norvegicus, UniProt P06536); experiment: tracer binding (Scatchard) to kidney type II sites (GR); settings: kidney cytosol, 2.5 μM 21OH-6OP
T1 construct: type II receptors in kidney cytosols; from tissue; host or cells: kidney cytosol, adrenalectomized male Sprague-Dawley rats
T1 sequence (P06536 1-795): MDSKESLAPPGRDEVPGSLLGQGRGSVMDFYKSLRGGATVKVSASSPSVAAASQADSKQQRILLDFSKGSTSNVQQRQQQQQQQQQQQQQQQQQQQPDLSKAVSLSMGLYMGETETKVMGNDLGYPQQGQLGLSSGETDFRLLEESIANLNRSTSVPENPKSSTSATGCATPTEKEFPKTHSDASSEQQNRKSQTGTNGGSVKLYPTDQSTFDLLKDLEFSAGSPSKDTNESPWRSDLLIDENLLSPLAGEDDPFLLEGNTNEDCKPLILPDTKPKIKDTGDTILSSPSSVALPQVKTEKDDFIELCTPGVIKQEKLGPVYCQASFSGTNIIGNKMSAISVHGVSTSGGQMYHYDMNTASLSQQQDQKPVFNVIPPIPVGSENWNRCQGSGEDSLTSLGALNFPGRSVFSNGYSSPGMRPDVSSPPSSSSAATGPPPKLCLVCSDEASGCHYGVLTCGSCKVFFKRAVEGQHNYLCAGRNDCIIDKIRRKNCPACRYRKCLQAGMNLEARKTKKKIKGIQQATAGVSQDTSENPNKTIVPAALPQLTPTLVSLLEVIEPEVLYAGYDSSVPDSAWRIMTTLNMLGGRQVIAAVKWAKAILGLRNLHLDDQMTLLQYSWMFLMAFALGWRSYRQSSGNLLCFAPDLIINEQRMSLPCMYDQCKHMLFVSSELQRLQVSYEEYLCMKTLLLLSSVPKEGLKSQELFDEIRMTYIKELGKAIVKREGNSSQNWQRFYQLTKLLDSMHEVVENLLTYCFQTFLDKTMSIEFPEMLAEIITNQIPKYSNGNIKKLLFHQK
Description: Binding Assay: Adrenalectomized male Sprague-Dawley rats were bled to death by heart puncture. Cold 0.9% NaCI was injected profusely through the aorta until organs were completely blanched. Thymuses were used as a source of GR and kidneys as a source of MR. Homogenization and incubation conditions were performed as previously described, (14) and (15), respectively. Briefly, homogenates performed in cold TEGM buffer at pH 7.4 (0.1 M Tris-HCl, 10 mM EDTA, 10 mM α-mercaptoethanol, 20 mM Na2 MoO4, 25% glycerol, 0.1 mM PMSF, 2.0 TIU/ml aprotinin and 1 mg% Leupeptin) were centrifuged at 37,000 rev. for 30 min at 0° C. Supernatants from this centrifugation are referred to as "cytosol". […] (^3 H)-P4 binding to uterus PR was assayed on immature female rats according to Jordan et al (16).
To study the binding of ALDO to kidney- MR without the competitive influence of the relatively more abundant GR, GR was removed with the specific ligand RU28362 (7).
The calculated Kd for type I sites in different conditions ranges between 0.4 and 1 nM (Table 1) which is at least eighty times higher than the affinity for type II sites.

[2] = target: T2, CBG partially purified from rat plasma (Rattus norvegicus, UniProt P31211); experiment: displacement of (^3 H)-B binding to partially purified CBG
T2 construct: CBG partially purified from rat plasma; from tissue; host or cells: rat plasma, partially purified
T2 sequence (P31211 23-396): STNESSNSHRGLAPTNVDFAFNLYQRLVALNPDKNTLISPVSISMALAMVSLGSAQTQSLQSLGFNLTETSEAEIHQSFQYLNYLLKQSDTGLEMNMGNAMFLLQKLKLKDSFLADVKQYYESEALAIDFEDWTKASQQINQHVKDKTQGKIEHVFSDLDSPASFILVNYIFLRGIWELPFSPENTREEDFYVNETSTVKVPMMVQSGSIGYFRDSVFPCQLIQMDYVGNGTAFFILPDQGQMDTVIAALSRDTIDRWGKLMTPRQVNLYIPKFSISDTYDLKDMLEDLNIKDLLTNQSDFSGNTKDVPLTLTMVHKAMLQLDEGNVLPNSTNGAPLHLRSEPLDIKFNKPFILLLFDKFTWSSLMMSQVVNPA
Description: Relative binding affinity (RBA) for partially purified CBG was determined by steroid competition for (^3 H)-B binding as described previously (14).
The displacement curve of 6,19-oxidoprogesterone is included for comparative purposes.

Q: For `C[C@]12CC[C@H]3[C@@H](C[C@H]4OC[C@@]35CCC(=O)C=C45)[C@@H]1CC[C@@H]2C(=O)CO` [21OH-6OP, 21-hydroxy-6,19-oxidoprogesterone], which “inhibition of TAT induction by B” value ([1]; 2.5 μM steroid vs 100 nM B) is on record?
A: The value was 80%.

Q: What about the “inhibition of TAT induction by DXM” value ([1]; 2.5 μM steroid vs 100 nM DXM) of the same compound?
A: The value was 80%.

Q: And the “antagonism of TAT induction by B (in words)” value ([1]; 2.5 μM steroid, 100 nM B)?
A: The value was “shows antagonist effect on TAT induction; also recorded: antagonize TAT induction by corticosterone and decamethasone; also recorded: significantly inhibited”.

Q: And the “antagonism of TAT induction by DXM (in words)” value ([1]; 2.5 μM steroid, 100 nM DXM)?
A: The value was “shows antagonist effect on TAT induction; also recorded: antagonize TAT induction by corticosterone and decamethasone; also recorded: significantly inhibited”.

Q: And the “GC response: liver glycogen” value (liver glycogen)?
A: Its value is “neither 6OP nor 21OH-6OP evoke these responses”.

Q: What about the “masking of (^3 H)-ALDO cross-reaction with GR / block of type II receptors” value (type II sites (GR)) of the same compound?
A: Its value is “able to mask the cross reaction of (^3 H)-ALDO with GR; also recorded: able to block type II receptors in kidney cytosols”.

Q: What about the “increase of binding to CBG by 21-hydroxyl, relative to 6OP” value ([2]; 21OH-6OP vs 6OP) of the same compound?
A: Its value is “hundred times”.

Q: What about the inhibition at 2.5 µM ([2]; 12 h, 2.5 μM, FIG. 2-B, read-out: block of CBG binding sites) of the same compound?
A: Its inhibition at 2.5 µM is about 60%.

Q: And the Kd ([2]; partially purified CBG, (^3 H)-B, 12 h at 0° C., read-out: RBA for CBG (Kd))?
A: Its Kd is 1270 nM.

Source: patent publication US6303591A, “21-hydroxy-6,19-oxidoprogesterone (21OH-6OP) and its use as medicament for treating excess of glucocorticoids” (Applied Research Systems ARS Holding NV, priority 1997, dated 2001)
